Experimental data published in patent publication EP1129352B1 (priority 1998, dated 2000).
Where two headings read alike, the source gives them in different places. Numbered stars: 1 amine (or outer) side, 2 acyl side, 3 side chain; on linkers, the order of the positions; unused ones are H or OH. Bridge positions count the residues as written; N and C are the ends. Square brackets hold non-standard residues; d marks the D form. Peptide text beside a SMILES is read from it. Adda = CO[C@@H](Cc1ccccc1)[C@@H](C)/C=C(C)/C=C/[C@H](N[*:1])[C@H](C)C(=O)[*:2]; dAsp(3S-Me) = C[C@H](C(=O)[*:3])[C@@H](N[*:1])C(=O)[*:2]; d(γGlu) = O=C(O)[C@@H](CCC(=O)[*:2])N[*:1]; NMeDha = C=C(NC)C(=O)O

How the values were obtained:
protein phosphatase 2A [1] = biological target: T1, protein phosphatase 2A (Homo sapiens, UniProt P67775); experiment: biochemical; format: binding
T1 construct: purchased Upstate Biotechnology (Lake Placid, NY)
T1 sequence (P67775 whole entry): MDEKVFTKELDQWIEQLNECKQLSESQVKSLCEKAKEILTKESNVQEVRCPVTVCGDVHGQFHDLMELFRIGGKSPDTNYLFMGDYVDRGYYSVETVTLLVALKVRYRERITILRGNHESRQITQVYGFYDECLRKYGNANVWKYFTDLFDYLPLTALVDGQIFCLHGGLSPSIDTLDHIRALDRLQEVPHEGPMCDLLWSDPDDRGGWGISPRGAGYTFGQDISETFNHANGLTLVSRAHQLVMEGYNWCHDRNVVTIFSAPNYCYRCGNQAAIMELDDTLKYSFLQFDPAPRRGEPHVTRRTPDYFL

protein phosphatase 2A [2] = biological target: T1, protein phosphatase 2A; experiment: biochemical; format: biochemical
[3] = 0.4%, preincubated 30 minutes on ice, relative to control, ± SEM
[4] = read-out: % activity Competitive binding assay
[5] = read-out: % activity Protein phosphatase assay

Compound: C[C@H](CCC(=O)NCCC[N+](C)(C)CCCS(=O)(=O)[O-])[C@H]1CC[C@H]2[C@@H]3[C@H](O)C[C@@H]4C[C@H](O)CC[C@]4(C)[C@H]3C[C@H](O)[C@]12C [CHAPS]
- % activity Competitive binding assay (protein phosphatase 2A [1]): 90.9 ± 9.9%
- % activity Protein phosphatase assay (protein phosphatase 2A [2]): 138.0 ± 34.4%

Compound: O=P([O-])([O-])OP(=O)([O-])[O-].[Na+].[Na+].[Na+].[Na+] [NaPPi]
- % activity Competitive binding assay (protein phosphatase 2A [1]; 0.05 mM): 101.4 ± 4.1%
- % activity Protein phosphatase assay (protein phosphatase 2A [2]; 0.05 mM, preincubated 30 minutes on ice, relative to control, ± SEM): 14.2 ± 1.2%

Compound: Nonidet P-40
- % activity Competitive binding assay (protein phosphatase 2A [1]; 0.4%): 106.0 ± 2.0%
- % activity Protein phosphatase assay (protein phosphatase 2A [2]; [3]): 61.1 ± 1.3%

Compound: microcystin-YR [reference compound]
- IC50 (protein phosphatase 2A [1]; read-out: IC50): 0.075 nM

Compound: C/C=C1/C(=O)N[C@@H](C(=O)O)[C@H](C)C(=O)N[C@@H](CCCNC(=N)N)C(=O)N[C@@H](/C=C/C(C)=C/[C@H](C)[C@H](Cc2ccccc2)OC)[C@H](C)C(=O)N[C@@H](C(=O)O)CCC(=O)N1C [nodularin, reference compound]
- IC50 (protein phosphatase 2A [1]; read-out: IC50): 0.015 nM

Compound: CO [MeOH]
- % activity Competitive binding assay (protein phosphatase 2A [1]; 10%): 73.9 ± 0.5%
- % activity Protein phosphatase assay (protein phosphatase 2A [2]; 10%, preincubated 30 minutes on ice, relative to control, ± SEM): 87.4 ± 4.1%

Compound: CC#N [acetonitrile]
- % activity Competitive binding assay (protein phosphatase 2A [1]): 90.4 ± 5.4%
- % activity Protein phosphatase assay (protein phosphatase 2A [2]): 88.2 ± 2.7%

Compound: Triton X-100
- % activity Competitive binding assay (protein phosphatase 2A [1]; 0.4%): 122.3 ± 1.0%
- % activity Protein phosphatase assay (protein phosphatase 2A [2]; [3]): 60.2 ± 5.7%

Compound: C=C1C(=O)N[C@H](C)C(=O)N[C@@H](CC(C)C)C(=O)N[C@@H](C(=O)O)[C@H](C)C(=O)N[C@@H](CCCNC(=N)N)C(=O)N[C@@H](/C=C/C(C)=C/[C@H](C)[C@H](Cc2ccccc2)OC)[C@H](C)C(=O)N[C@@H](C(=O)O)CCC(=O)N1C [microcystin-LR, reference compound] (R[Adda][d(γGlu)][NMeDha][dA]L[dAsp(3S-Me)]-OH; lactam N-7)
- IC50 (protein phosphatase 2A [1]; read-out: IC50): 0.017 nM

Compound: CO[C@H]([C@H](O)CC(=O)[C@@H](C)[C@@H](O)CC[C@@H](C)[C@@H]1O[C@]2(CC[C@@H](C)[C@H](CC[C@H](C)C(C)=O)O2)CC[C@@H]1C)[C@H](OC(=O)C[C@@H](O)C1=C(C)C(=O)OC1=O)C(C)C [tautomycin, reference compound]
- IC50 (protein phosphatase 2A [1]): 0.562 nM

Compound: C=C1[C@@H](O)[C@@H]2O[C@]3(CC[C@H](/C=C/[C@@H](C)[C@@H]4CC(C)=C[C@@]5(O[C@H](C[C@@](C)(O)C(=O)O)CC[C@H]5O)O4)O3)CC[C@H]2O[C@@H]1[C@@H](O)C[C@H](C)[C@H]1O[C@@]2(CCCCO2)CC[C@H]1C [okadaic acid, reference compound]
- IC50 (protein phosphatase 2A [1]): 0.1 nM

Compound: Nc1ncnc2c1ncn2[C@@H]1O[C@H](COP(=O)(O)OP(=O)(O)OP(=O)(O)O)[C@@H](O)[C@H]1O [ATP]
- activity at 500 µM (protein phosphatase 2A [1]; [4]): 102 ± 1.7%
- activity at 2000 µM (protein phosphatase 2A [1]; [4]): 103.3 ± 0.2%
- activity at 500 µM (protein phosphatase 2A [2]; [5]): 29.8 ± 5.6%
- activity at 2000 µM (protein phosphatase 2A [2]; [5]): 9.8 ± 3.4%

Compound: [F-].[Na+] [NaF]
- % activity Competitive binding assay (protein phosphatase 2A [1]; 5 mM): 102.0 ± 3.3%
- % activity Competitive binding assay (protein phosphatase 2A [1]; 50 mM): 101.5 ± 1.9%
- % activity Protein phosphatase assay (protein phosphatase 2A [2]; 5 mM, preincubated 30 minutes on ice, relative to control, ± SEM): 62.6 ± 0.4%
- % activity Protein phosphatase assay (protein phosphatase 2A [2]; 50 mM, preincubated 30 minutes on ice, relative to control, ± SEM): 7.7 ± 1.4%

Compound: [Cl-].[Na+] [NaCl]
- % activity Competitive binding assay (protein phosphatase 2A [1]): 41.2 ± 0.7%
- % activity Protein phosphatase assay (protein phosphatase 2A [2]): 44.4 ± 1.6%

Compound: COC[C@@H]([C@H](O)[C@H](O)C(=O)NCC[C@H](C)c1nc(/C=C/C[C@@H]2O[C@]3(C[C@@H](O)[C@@H]2C)O[C@H]([C@H](C[C@H](O)[C@H](C)[C@H](O)[C@H](C)/C=C(C)/C(C)=C/C=C/C(C)=C\C#N)OC)[C@H](OP(=O)(O)O)C3(C)C)co1)N(C)C [calyculin A, reference compound]
- IC50 (protein phosphatase 2A [1]; read-out: IC50): 0.251 nM

Compound: C[S+](C)[O-] [DMSO, dimethyl sulfoxide]
- % activity Competitive binding assay (protein phosphatase 2A [1]): 72.8 ± 2.3%
- % activity Protein phosphatase assay (protein phosphatase 2A [2]): 97.9 ± 3.3%
